Data taken from US20070148283A1, “Compositions providing a sensation substantially similar to that provided by menthol” (Cadbury Adams USA LLC, priority 2005, published 2007).

Experiments:
[1] = Amount in a composition achieving the characteristic nasal action of menthol; format: in vivo; conditions: amount present in a composition; equivalent amounts relative to menthol
Source text: For purposes of achieving the characteristic “nasal action” of menthol, an equivalent amount of another compound sufficient to impart the characteristic “nasal action” of menthol is about 0.5 ppm, preferably about 1 ppm or even 2 or 3 ppm of methone, about 0.5 ppm, preferably about 1 ppm or even 2 or 3 ppm of isomethone, about 0.1 ppm, preferably about 0.2 ppm or even 0.3 or 0.5 ppm of eucalyptol, and about 10 ppm, preferably about 20 ppm or even 30 or 50 ppm of camphor. Using these relative conversions, one of ordinary skill in the art may readily substitute one or more compounds to achieve the relative “nasal action” of menthol.

[2] = Amount in a composition achieving the characteristic cooling effect of menthol; format: in vivo; conditions: amount present in a composition; equivalent amounts relative to menthol
Source text: For purposes of achieving the characteristic “cooling effect” of menthol, an equivalent amount of another compound sufficient to impart the characteristic “cooling effect” of menthol is about 50 ppm, preferably about 100 ppm or even 200 or 300 ppm of menthyl lactate, about 20 ppm, preferably about 40 ppm or even 50 or 75 ppm of monomenthyl succinate, and about 0.01 ppm, preferably about 0. 1 ppm or even 0.3 or 0.5 ppm of isopulegol. Using these relative conversions, one of ordinary skill in the art may readily substitute one or more compounds to achieve the relative “cooling effect” of menthol.

SMILES	amount sufficient to impart the characteristic nasal action of menthol [1]	amount sufficient to impart the characteristic cooling effect of menthol [2]
CC12CCC(CC1=O)C2(C)C (stereo not drawn) [camphor]	about 10 ppm	–
CC12CCC(CC1)C(C)(C)O2 [eucalyptol]	about 0.1 ppm	–
CC(C)[C@@H]1CC[C@H](C)CC1=O [isomethone, isomenthone]	about 0.5 ppm	–
C=C(C)[C@@H]1CC[C@@H](C)C[C@H]1O [isopulegol]	–	about 0.01 ppm
CC1CCC(C(C)C)C(O)C1 (stereo not drawn) [menthol]	≥ 3 ppm	≥ 25 ppm
CC1CCC(C(C)C)C(OC(=O)C(C)O)C1 (stereo not drawn) [menthyl lactate]	–	about 50 ppm
CC(C)[C@@H]1CC[C@@H](C)CC1=O [methone, menthone]	about 0.5 ppm	–
CC(C)[C@@H]1CC[C@@H](C)C[C@H]1OC(=O)CCC(=O)O [monomenthyl succinate]	–	about 20 ppm
